According to ChEMBL document CHEMBL1129417, “Glucose transport-enhancing and hypoglycemic activity of 2-methyl-2-phenoxy-3-phenylpropanoic acids” (1996):

Tests used:
[1] = organism: Rattus norvegicus; experiment: Percentage inhibition of Glucagon stimulated Gluconeogenesis in Isolated Rat Hepatocytes in vitro; assay type: functional, Hepatocyte
[2] = system: 3T3-L1; experiment: compound was evaluated for their acute effects in vitro by measuring 2-Deoxyglucose (2DG) uptake in vehicle treated 3T3-L1 adipocytes at 100 uM dose.; assay type: functional
[3] = organism: Rattus norvegicus; experiment: Percentage inhibition of basal stimulated Gluconeogenesis in Isolated Rat Hepatocytes in vitro; assay type: functional, Hepatocyte
[4] = system: Mus musculus; experiment: compound was tested in vivo for hypoglycemic activity in 6-8 week old C57BL/6J ob/ob mouse at 50 mg/kg; assay type: functional
[5] = system: Mus musculus; experiment: compound was tested in vivo for hypoglycemic activity in 6-8 week old C57BL/6J ob/ob mouse at 25 mg/kg; assay type: functional
[6] = organism: Rattus norvegicus; experiment: Compound was tested for inhibition of gluconeogenesis; assay type: functional; settings: Rattus norvegicus; read-out: ED50
[7] = system: Mus musculus; experiment: compound was tested in vivo for hypoglycemic activity in 6-8 week old C57BL/6J ob/ob mouse at 10 mg/kg; assay type: functional
[8] = system: 3T3-L1; experiment: compound was evaluated for their acute effects in vitro by measuring 2-Deoxyglucose (2DG) uptake in vehicle treated 3T3-L1 adipocytes at 60 uM dose.; assay type: functional
[9] = system: 3T3-L1; experiment: compound was evaluated for their acute effects in vitro by measuring 2-Deoxyglucose (2DG) uptake in vehicle treated 3T3-L1 adipocytes at 10 uM dose.; assay type: functional
[10] = system: 3T3-L1; experiment: compound was evaluated for their acute effects in vitro by measuring 2-Deoxyglucose (2DG) uptake in vehicle treated 3T3-L1 adipocytes at 30 uM dose.; assay type: functional
[11] = system: Mus musculus; experiment: In vivo hypoglycemic activity expressed as glucose lowering relative to positive control in 6-8 week old C57BL/6J ob/ob mouse at 1 mg/kg.; assay type: functional
[12] = organism: Rattus norvegicus; experiment: Inhibition of gluconeogenesis in rat; assay type: functional
[13] = system: 3T3-L1; experiment: compound was evaluated for their acute effects in vitro by measuring 2-Deoxyglucose (2DG) uptake in vehicle treated 3T3-L1 adipocytes at concentration of 10 micro M; assay type: functional
[14] = system: 3T3-L1; experiment: compound was evaluated for their acute effects in vitro by measuring 2-Deoxyglucose (2DG) uptake in vehicle treated 3T3-L1 adipocytes at concentration of 30 micro M; assay type: functional
[15] = system: Mus musculus; experiment: In vivo hypoglycemic activity expressed as glucose lowering relative to positive control in 6-8 week old C57BL/6J ob/ob mouse at 5 mg/kg.; assay type: functional
[16] = system: 3T3-L1; experiment: In vitro by measurements of 2-Deoxyglucose (2DG) uptake in vehicle treated 3T3-L1 adipocytes at 3 uM dose.; assay type: functional
[17] = system: 3T3-L1; experiment: compound was evaluated for their acute effects in vitro by measuring 2-Deoxyglucose (2DG) uptake in vehicle treated 3T3-L1 adipocytes at 300 uM dose.; assay type: functional
[18] = system: Mus musculus; experiment: In vivo hypoglycemic activity expressed as glucose lowering relative to positive control in 6-8 week old C57BL/6J ob/ob mouse at 10 mg/kg; assay type: functional
[19] = system: 3T3-L1; experiment: Acute effects in vitro by measuring 2-deoxyglucose (2DG) uptake in vehicle treated 3T3-L1 adipocytes at 10 uM dose.; assay type: functional
[20] = system: Mus musculus; experiment: compound was tested in vivo for hypoglycemic activity in 6-8 week old C57BL/6J ob/ob mouse at 0.5 mg/kg; assay type: functional
[21] = system: 3T3-L1; experiment: compound was evaluated for their acute effects in vitro by measuring 2-Deoxyglucose (2DG) uptake in vehicle treated 3T3-L1 adipocytes at concentration of 3 micro M; assay type: functional
[22] = system: L6; experiment: compound was evaluated for their acute effects in vitro by measuring 2-Deoxyglucose (2DG) uptake in vehicle treated L6 […] at 30 uM dose.; assay type: functional
[23] = system: L6; experiment: compound was evaluated for their acute effects in vitro by measuring 2-Deoxyglucose (2DG) uptake in vehicle treated L6 […] at 3 uM dose.; assay type: functional
[24] = system: L6; experiment: compound was evaluated for their acute effects in vitro by measuring 2-Deoxyglucose (2DG) uptake in vehicle treated L6 […] at 10 uM dose.; assay type: functional
[25] = system: 3T3-L1; experiment: In vitro measurements of 2-Deoxyglucose (2DG) uptake in vehicle treated 3T3-L1 adipocytes at 60 uM dose.; assay type: functional
[26] = system: Mus musculus; experiment: compound was tested in vivo for hypoglycemic activity expressed as Glucose lowering relative to positive control in 6-8 week old C57BL/6J ob/ob mouse at 0.5 mg/kg; assay type: functional
[27] = system: Mus musculus; experiment: compound was tested in vivo for hypoglycemic activity expressed as Glucose lowering relative to positive control in 6-8 week old C57BL/6J ob/ob mouse at 0.1 mg/kg; assay type: functional
[28] = system: Mus musculus; experiment: compound was tested in vivo for hypoglycemic activity in 6-8 week old C57BL/6J ob/ob mouse at 5 mg/kg; assay type: functional
[29] = system: 3T3-L1; experiment: Acute effects in vitro by measuring 2-deoxyglucose (2DG) uptake in vehicle treated 3T3-L1 adipocytes at 30 uM dose.; assay type: functional
[30] = system: 3T3-L1; experiment: compound was evaluated for their acute effects in vitro by measuring 2-Deoxyglucose (2DG) uptake in vehicle treated 3T3-L1 adipocytes at 0.3 uM dose.; assay type: functional
[31] = system: L6; experiment: Compound was evaluated for their acute effects in vitro by measuring 2-Deoxyglucose (2DG) uptake in vehicle treated L6 […] at 60 uM dose.; assay type: functional
[32] = system: L6; experiment: Compound was evaluated for their acute effects in vitro by measuring 2-Deoxyglucose (2DG) uptake in vehicle treated L6 […] at 1 uM dose.; assay type: functional
[33] = system: 3T3-L1; experiment: compound was evaluated for their acute effects in vitro by measuring 2-Deoxyglucose (2DG) uptake in vehicle treated 3T3-L1 adipocytes at 1 uM dose.; assay type: functional
[34] = system: Mus musculus; experiment: compound was tested in vivo for hypoglycemic activity expressed as Glucose lowering relative to positive control in 6-8 week old C57BL/6J ob/ob mouse at 25 mg/kg; assay type: functional
[35] = system: Mus musculus; experiment: Food intake (g/5 mice/ 5 days) when compound given at 5 mg/kg/day in pair feeding study with ob/ob mice; assay type: functional
[36] = system: Mus musculus; experiment: Basal glucose(mg/dl) level when compound given at 5 mg/kg/day in pair feeding study with ob/ob mice; assay type: functional
[37] = system: 3T3-L1; experiment: In vitro measurements 2-Deoxyglucose (2DG) uptake in vehicle treated 3T3-L1 adipocytes at 100 uM dose.; assay type: functional
[38] = system: Mus musculus; experiment: compound was tested in vivo for hypoglycemic activity expressed as Glucose lowering relative to positive control in 6-8 week old C57BL/6J ob/ob mouse at 20 mg/kg; assay type: functional
[39] = system: L6; experiment: Compound was evaluated for their acute effects in vitro by measuring 2-Deoxyglucose (2DG) uptake in vehicle treated L6 […] at 30 uM dose.; assay type: functional
[40] = system: L6; experiment: Compound was evaluated for their acute effects in vitro by measuring 2-Deoxyglucose (2DG) uptake in vehicle treated L6 […] at 100 uM dose.; assay type: functional
[41] = system: L6; experiment: Compound was evaluated for their acute effects in vitro by measuring 2-Deoxyglucose (2DG) uptake in vehicle treated L6 […] at 3 uM dose.; assay type: functional
[42] = system: L6; experiment: Compound was evaluated for their acute effects in vitro by measuring 2-Deoxyglucose (2DG) uptake in vehicle treated L6 […] at 10 uM dose.; assay type: functional
[43] = system: Mus musculus; experiment: Glucose(mg/dl) level, on day 5 when compound given at 5 mg/kg/day in pair feeding study with ob/ob mice; assay type: functional
[44] = system: Mus musculus; experiment: compound was tested in vivo for hypoglycemic activity expressed as Glucose lowering relative to positive control in 6-8 week old C57BL/6J ob/ob mouse at 50 mg/kg; assay type: functional
[45] = system: Mus musculus; experiment: Net body weight delta (g)when compound given at 5 mg/kg/day in pair feeding study with ob/ob mice; assay type: functional
[46] = system: Mus musculus; experiment: compound was tested in vivo for hypoglycemic activity expressed as Glucose lowering relative to positive control in 6-8 week old C57BL/6J ob/ob mouse at 2.5 mg/kg; assay type: functional
[47] = Rattus norvegicus, read-out: ED50

Compound `C1CCC(NC2CCCCC2)CC1.CC(C)c1ccc(OC(Cc2cccc(F)c2)C(=O)O)cc1` (configuration not stated) has an Inhibition [1] of 3%, a Basal uptake [2] of 111% and an Inhibition [3] of 38%. For the same compound, the Hypoglycemic activity [4] was 100%, the Hypoglycemic activity [5] was 65% and the ED50 [6] was under 25 mg/kg.
`C1CCC(NC2CCCCC2)CC1.CC(C)c1ccc(OC(Cc2cccc(C(F)(F)F)c2)C(=O)O)cc1` (configuration not stated) showed a Basal uptake [2] of 284%, a Hypoglycemic activity [4] of 76% and a Hypoglycemic activity [7] of under 0%. For the same compound, the Hypoglycemic activity [5] was 64% and the ED50 [6] was 25 mg/kg.
`CC(C)c1ccc(SC(C)(Cc2ccc(Cl)cc2)C(=O)[O-])cc1.[Na+]` (configuration not stated) was tested, and the Hypoglycemic activity [7] was 31%, the Basal uptake [8] was 187% and the ED50 [6] was over 10 mg/kg. It also gave a Basal uptake [9] of 83% and a Basal uptake [10] of 119%.
With `CCc1cccc(CC(C)(Oc2ccc(C(C)C)cc2)C(=O)[O-])c1.[Na+]` (configuration not stated) the Hypoglycemic activity [11] was 76%, the ED50 [12, 47] was 0.5 mg/kg and the Basal uptake [13] was 194%. It also gave a Basal uptake [14] of 246%, a Hypoglycemic activity [15] of 101% and a Basal uptake [16] of 102%. The Basal uptake [17] was 117%, the Hypoglycemic activity [18] was 147% and the Basal uptake [19] was 127%. It also gave a Hypoglycemic [20] of under 0 and a Basal uptake [21] of 131%.
For `CC(C)c1ccc(OC(C)(Cc2cccc(C(F)(F)F)c2)C(=O)[O-])cc1.[Na+]` (configuration not stated), the Hypoglycemic activity [11] was 44%, the ED50 [12, 47] was 5 mg/kg and the Basal uptake [22] was 121%. For the same compound, the Hypoglycemic activity [15] was 46%, the Basal uptake [23] was 129% and the Hypoglycemic activity [18] was 64%. It also gave a Basal uptake [24] of 104%.
`CCc1ccc(CC(C)(Oc2ccc(C(C)C)cc2)C(=O)[O-])cc1.[Na+]` (configuration not stated) gave a Hypoglycemic activity [11] of 86%, an ED50 [12, 47] of 0.1 mg/kg and a Basal uptake [25] of 109%. For the same compound, the Basal uptake [13] was 108%, the Basal uptake [14] was 216% and the Hypoglycemic activity [26] was 76%. For the same compound, the Hypoglycemic activity [27] was 55%, the Hypoglycemic activity [18] was 119% and the “Glucose lowering relative to positive control” value [28] was 109%. It also gave a Basal uptake [21] of 94%.
For `CC(C)c1ccc(OC(C)(Cc2ccc(Cl)cc2)C(=O)O)cc1` (stereo in doubt; 26), the Basal uptake [29] was 100%, the Basal uptake [30] was 106% and the Hypoglycemic activity ([11]; 1 mg/kg) was 50%. It also gave an ED50 [12, 47] of 1 mg/kg, a Basal uptake [25] of 110% and a Basal uptake [13] of 200%. The Inhibition [1] was 22%, the Basal uptake [14] was 291% and the Hypoglycemic activity ([15]; 5 mg/kg) was 77%. For the same compound, the Basal uptake [31] was 108%, the Basal uptake [16] was 98% and the Basal uptake [32] was 101%. For the same compound, the Basal uptake [33] was 86%, the Hypoglycemic activity [34] was 90% and the Inhibition [3] was 36%. For the same compound, the Food intake [35] was 132 g 5mice-1 5days-1, the Basal glucose [36] was 341 mg/dL and the Hypoglycemic activity [18] was 111%. For the same compound, the Basal uptake [37] was 220%, the Basal uptake [19] was 94% and the Hypoglycemic activity [38] was 104%. For the same compound, the Basal uptake [39] was 87%, the Basal uptake [40] was 88% and the Basal uptake [41] was 97%. The Basal uptake [21] was 139%, the Basal uptake [42] was 96% and the Glucose [43] was 223 mg/dL. The Hypoglycemic activity [44] was 83% and the “Net body weight delta” value [45] was 0.4 g.
For `CC(C)c1ccc(OC(C)(Cc2ccc(Cl)cc2)C(=O)O)cc1` (stereo in doubt; 27), the Hypoglycemic activity ([11]; 1 mg/kg) was 36%, the ED50 [12] was 1 mg/kg and the Hypoglycemic activity ([15]; 5 mg/kg) was 65%. The Hypoglycemic activity [46] was 79% and the Basal uptake [37] was 214%.
In the case of `CC(C)c1ccc(OC(C)(Cc2ccc(Cl)cc2)C(=O)O)cc1` (stereo in doubt; 28), the Hypoglycemic activity ([11]; 1 mg/kg) is reported as 47%, the Hypoglycemic activity ([15]; 5 mg/kg) is reported as 100% and the Hypoglycemic activity [46] is reported as 88%. For the same compound, the Basal uptake [37] was 229%.
